Assay type in all cases: cell-based, human
The test system of one assay is RGP-specific TCL. In words: TCL proliferation assay (3H-thymidine incorporation, stimulation index). To be noted: peptides 10 μg/ml. The procedure: Generation of Short-Term RGP-Specific TCL
PBMC were cultured in 24-well plates (Costar, Mass., USA) at 2.5×10^6 cells/well with RGP extract at a concentration of 25 or 50 μg/ml in RPMI 1640 medium (Gibco BRL, NY, USA) supplemented with 2 mM GlutaMAX I (Gibco BRL), 0.05 mg/ml gentamicin (David Bull Laboratories, Mulgrave, Victoria, Australia) and 5% heat-inactivated hunan AB^+ serum (Sigma, Mo., USA) for 7 days at 37° C. in a 5% CO2 humidified incubator. At day 7, cells were washed once and restimulated in 24-well plates at 5×10^5 cells/well width 25 or 50 μg/ml of RGP extract in the presence of 5×10^5 cells/well irradiated (3000 rads) autologous PBMC as a source of antigen presenting cells (APC). At day 2 following restimulation, 10 U/ml of Lymphocult T-LF (LC; Biotest, Germany) was added as a source of IL-2 and at day 4, 1 ml of culture medium was removed and replaced with fresh medium and 10 U/ml of LC. […] In all experiments T cells were rested for 6 to 7 days after the last addition of antigen and APC before testing.
T cells (5×10^4/well) were cultured in 96-well U bottom plates with either RGP extract at concentrations ranging from 25 to 200 μg/ml, purified Lol p 1 (0.12 to 2 μg/ml) or Lol p 5 (0.1 to 10 μg/ml), or Lol p 1 or Lol p 5 peptides (10 μg/ml), or medium alone (to determine background levels of proliferation), in the presence of washed autologous irradiated (3000 rads) PBMC (5×10^4/well). […] Cultures were incubated for 3 days, pulsed for the last 16 hours with ^3H-thymidine (1 μCi/well) and harvested onto glass fibre filters. ^3H-thymidine incorporation was measured by liquid scintillation spectroscopy and the mean counts per minute (cpm) for triplicate cultures was determined. Responses were considered positive if the stimulation index (SI, cpm of antigen-stimulated T cells divided by cpm of unstimulated T cells) was ≧2.5. Where several concentrations of allergen were tested (i.e., RGP, Lol p 1 and Lol p 5), values corresponding to the highest proliferation are shown.
Background: Incorporation of labelled thymidine or its analogues reports DNA synthesis.

For assay [1], the system named is IFN-γ production by RGP-specific TCL. As to the kind of experiment: IFN-γ detection in culture supernatants by sandwich ELISA. The conditions noted are these: supernatant at 48 h, UD undetectable, limit of detection 2 pg/ml. Here is the method: (§1) Cytokine Detection in Culture Supernatants
(§2) Supernatants of triplicate cultures were harvested and pooled from T cell proliferation assay cultures at 48 hours for the detection of IL-5 and IFN-γ production by sandwich ELISA. Briefly white Maxisorp (NUNC, Roskilde, Denmark) ELISA plates were coated with capture mAb (anti-IL-5, Pharmingen, San Diego, Calif., USA; anti-IFN-γ, Endogen, Woburn, Mass. USA) overnight at 4° C. Plates were then washed and wells blocked with 1% Bovine Serum Albumin/PBS for 1 hour at room temperature. Following washing, test samples (neat) and serial dilutions of recombinant human IL-5 (Pharmingen, USA) or IFN-γ (Endogen, USA) (for the construction of standard curves) were added and incubated overnight at 4° C. Following washing, plates were incubated with biotinylated detecting mAb (anti-IL-5, Pharmingen, USA; […], Endogen, USA) for 1 hour at room temperature. Plates were then washed and incubated with streptavidin-peroxidase (Amersham, Piscataway, N.J., USA) for 30 minutes at room temperature. Following washing, a chemiluminescent substrate (Du Pont, Wilmington, Del., USA) was added to each well and plates read in a Lumicount microplate Glow Luminometer (Packard Instrument Company, Meriden, Conn., USA), 0.5 seconds/well, automatic sensitivity setting. Standard curve construction and determination of test sample cytokine levels were performed using Packard I-smart software. The limits of detection for IL-5 and IFN-γ were 10 pg/ml and 2 pg/ml respectively.
A general note: ELISA stands for enzyme-linked immunosorbent assay.

Assay [2] has as its system IL-5 production by RGP-specific TCL. As to the kind of experiment: IL-5 detection in culture supernatants by sandwich ELISA. To be noted: supernatant at 48 h, UD undetectable, limit of detection 10 pg/ml. The procedure: as §1, §2
[3] abbreviates: Subject 2 TCL, Lol p 5 series (Table 4), RGP and Lol p 5 maximal response.
The mark [4] stands for this setting: Subject 11 TCL, Lol p 5 series (Table 4), RGP and Lol p 5 maximal response.
Where [5] appears, read: Subject 29 TCL, Lol p 5 series (Table 4), RGP and Lol p 5 maximal response.
Where [6] appears, read: Subject 38 TCL, Lol p 5 series (Table 4), RGP and Lol p 5 maximal response, * SDS-PAGE purified Lol p 5.
Where [7] appears, read: Subject 2 TCL, Lol p 5 peptides.
Setting [8] is: Subject 38 TCL, Lol p 5 peptides.
[9] abbreviates: Subject 4 TCL, Lol p 1 series (Table 3), RGP and Lol p 1 maximal response.
The mark [10] stands for this setting: Subject 10 TCL, Lol p 1 series (Table 3), RGP and Lol p 1 maximal response.
The mark [11] stands for this setting: Subject 11 TCL, Lol p 1 series (Table 3), RGP and Lol p 1 maximal response.
Where [12] appears, read: Subject 18 TCL, Lol p 1 series (Table 3), RGP and Lol p 1 maximal response.
Setting [13] is: Subject 19 TCL, Lol p 1 series (Table 3), RGP and Lol p 1 maximal response.
[14] abbreviates: Subject 23 TCL, Lol p 1 series (Table 3), RGP and Lol p 1 maximal response.
Setting [15] is: Subject 15 TCL, Lol p 1 peptides.
The mark [16] stands for this setting: Subject 23 TCL, Lol p 1 peptides.
Where [17] appears, read: Subject 15 TCL, Lol p 1 series (Table 3), RGP and Lol p 1 maximal response.

Results on 6 substances are retold here after patent US20060084789A1, “Immunotherapeutic and immunoprphylactic reagents” (priority 2002, published 2006).

For the substance “DVNAGFKAAVAAAANAPPAD (Lolium perenne) [Lol p 5 peptide 37-56]”, the “Proliferative response, stimulation index” value with RGP-specific TCL (setting [3]) is 4.3; with RGP-specific TCL (Subject 6 TCL, Lol p 5 series (Table 4), RGP and Lol p 5 maximal response) it was 7.3; in the assay with RGP-specific TCL (setting [4]), 4.5; in the assay on RGP-specific TCL (Subject 13 TCL, Lol p 5 series (Table 4), RGP and Lol p 5 maximal response), 0.9; in the assay on RGP-specific TCL (Subject 20 TCL, Lol p 5 series (Table 4), RGP and Lol p 5 maximal response) it was 4.9; with RGP-specific TCL (setting [5]), 2.8. Besides, the “Proliferative response, stimulation index” value is on record as 4.1 with RGP-specific TCL (Subject 35 TCL, Lol p 5 series (Table 4), RGP and Lol p 5 maximal response); 4.0 with RGP-specific TCL (setting [6]). Also, the “IFN-γ, proliferation inducing peptides” value in assay [1] (setting [7]) turned out to be 7.0 pg/mL; in assay [1] (setting [8]), 85.0 pg/mL. Moreover, the “IL-5, proliferation inducing peptides” value in assay [2] (setting [7]) is 692.8 pg/mL; in assay [2] (setting [8]) it was 275.1 pg/mL.

On to “Lol p 5 peptide 190-209: synthetic 20-mer, amino acids 190-209 of Lol p 5A (SEQ ID NO:2) (GAYETYKFIPSLEAAVKQAY; Lolium perenne)”, for which the “Proliferative response, stimulation index” value with RGP-specific TCL (setting [3]) is recorded as 3.0; in the assay on RGP-specific TCL (Subject 4 TCL, Lol p 5 series (Table 4), RGP and Lol p 5 maximal response), 5.1; with RGP-specific TCL (setting [4]) it was 4.0; in the assay with RGP-specific TCL (setting [5]), 3.1. Further, the “IFN-γ, proliferation inducing peptides” value in assay [1] (setting [7]) stood at 7.8 pg/mL. For the same substance, the “IL-5, proliferation inducing peptides” value in assay [2] (setting [7]) was 518.1 pg/mL.

Consider “KESWGAVWRIDTPDKLTGPF (Lolium perenne) [Lol p 1 peptide 190-209]”, for which the “Proliferative response, stimulation index” value with RGP-specific TCL (setting [9]) stood at 6.2; in the assay with RGP-specific TCL (setting [10]), 3.7; with RGP-specific TCL (setting [11]), 3.3; in the assay with RGP-specific TCL (Subject 14 TCL, Lol p 1 series (Table 3), RGP and Lol p 1 maximal response), 5.7; in the assay on RGP-specific TCL (setting [12]), 5.4; with RGP-specific TCL (setting [13]) it was 3.0. The “Proliferative response, stimulation index” value in the assay with RGP-specific TCL (Subject 22 TCL, Lol p 1 series (Table 3), RGP and Lol p 1 maximal response) is 5.7; with RGP-specific TCL (setting [14]), 5.2. Moreover, the “IFN-γ, proliferation inducing peptides” value in assay [1] (Subject 10 TCL, Lol p 1 peptides) amounted to 9.0 pg/mL; in assay [1] (setting [15]) it was 63.5 pg/mL; in assay [1] (setting [16]), 8.3 pg/mL. The “IL-5, proliferation inducing peptides” value is 15.3 pg/mL in assay [2] (setting [15]) and 14.7 pg/mL in assay [2] (Subject 19 TCL, Lol p 1 peptides).

For “ADKFKIFEAAFSESSKGLLA (Lolium perenne) [Lol p 5 peptide 55-74]”, the “Proliferative response, stimulation index” value with RGP-specific TCL (Subject 36 TCL, Lol p 5 series (Table 4), RGP and Lol p 5 maximal response) is listed as 3.3; in the assay with RGP-specific TCL (setting [6]), 3.3. The “IFN-γ, proliferation inducing peptides” value in assay [1] (setting [8]) amounted to 54.2 pg/mL. Moreover, the “IL-5, proliferation inducing peptides” value in assay [2] (setting [8]) stood at 220.7 pg/mL.

“KGKDKWIELKESWGAVWRID (Lolium perenne) [Lol p 1 peptide 181-200]”: the “Proliferative response, stimulation index” value is 4.5 in the assay with RGP-specific TCL (setting [9]); 2.6 in the assay with RGP-specific TCL (setting [10]); 7.3 in the assay on RGP-specific TCL (setting [11]); 5.8 in the assay with RGP-specific TCL (setting [17]); 2.6 in the assay on RGP-specific TCL (setting [12]); 6.2 in the assay with RGP-specific TCL (setting [14]). Further, the entries for the “IFN-γ, proliferation inducing peptides” value in assay [1] (setting [15]) and in assay [1] (setting [16]) were 56.6 pg/mL and 11.7 pg/mL, respectively. Besides, the “IL-5, proliferation inducing peptides” value in assay [2] (setting [15]) is 13.3 pg/mL; in assay [2] (setting [16]) it was 25.1 pg/mL.

For “IAPYHFDLSGHAFGSMAKKG (Lolium perenne) [Lol p 1 peptide 100-119]”, the “Proliferative response, stimulation index” value is given as 9.4 in the assay with RGP-specific TCL (Subject 2 TCL, Lol p 1 series (Table 3), RGP and Lol p 1 maximal response); 6.8 in the assay on RGP-specific TCL (setting [9]); 7.9 in the assay with RGP-specific TCL (setting [11]); 9.2 with RGP-specific TCL (setting [17]); 3.7 with RGP-specific TCL (setting [13]). Moreover, the “IFN-γ, proliferation inducing peptides” value in assay [1] (setting [15]) worked out at 167.1 pg/mL. In assay [2] (setting [15]), the “IL-5, proliferation inducing peptides” value was found to be 275.6 pg/mL.
